Experimental data as given in patent US8815503B2, “Compositions and methods for immunostimulatory RNA oligonucleotides” (Rheinische Friedrich-Wilhelms-Universitat Bonn, priority 2005, dated 2014).

Assays:
PBMC [1] = experiment: IL-12p70 production in PBMC stimulated with complexed RNA oligonucleotides or TLR ligands, ELISA of supernatant after 24 hours; format: cell-based, human; details: for IL-12p70 production within PBMC: TLR ligands at optimal concentrations, RNA complexed with poly-L-arginine
Method: FIG. 5: PBMC from three different healthy donors were isolated and stimulated with the following stimuli (form left to right): medium, Poly I:C (10 μg/ml), LPS (1 μg/ml), 3M-001 (1 μM), 3M-007 (1 μM), R848 (5 μg/ml), 3M-002 (1 μM), CpG ODN2216 (3 μg/ml), (the following stimuli were all complexed using poly-L-arginine 88) medium, polyA ssRNA, poly U ssRNA, polyA/U dsRNA, polyc ssRNA, polyG ssRNA, poly C/G dsRNA, 9.1 sense ssRNA, 9.1antisene ssRNA, 9.1duplex dsRNA, 9.2sense ssRNA, 9.2 antisene ssRNA, 9.2duplex dsRNA, 9.3sense ssRNA, 9.3antisene ssRNA and 9.3duplex dsRNA. 24 hours after stimulation supernatants were harvested and analyzed for IL-12p70 (A) and TNF-a (B) production. Data from three individual donors were summarized and depicted as mean values ±SEM. […]

PBMC [2] = experiment: 193 ssRNA 4mer-motif library screen: IL-12 (IL-12p40) production in PBMC of six donors, poly-L-Arg complexation, ELISA at 44 hours, IL-12 index and adjusted IL-12 index; format: cell-based, human; parameters: key to Adjusted IL-12 index Mean: IL-12 index (ratio to 9.2sense) minus donor mean, averaged over 6 donors; details: for IL-12 in supernatant, mean of the two raw values of the duplicates: poly-L-Arg complexed, 44 hours; for Adjusted IL-12 index Mean: 193 ssRNA oligonucleotide library, data from six individual donors summarized, ascending order
In short: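 Human PBMC from six healthy donors were stimulated in duplicate with poly-L-arginine-complexed ssRNA oligonucleotides, and IL-12p40 in supernatant was measured by ELISA at 44 h. Each value was divided by the 9.2sense control on the same plate (IL-12 index), then the donor's mean index was subtracted; adjusted indices are means ± SEM over donors.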

5′-AGCUUAACCUGUCCUUCAA-3′ (RNA, backbone not given here) [9.2sense, standard ssRNA oligonucleotide, positive control on all cell culture plates]
IL-12p70 production, absolute value (PBMC [1]; donor 1, complexed with poly-L-arginine of approx. 88 amino acids): 1390 pg/mL | IL-12p70 production, absolute value (PBMC [1]; donor 2, complexed with poly-L-arginine of approx. 88 amino acids): 396 pg/mL | IL-12 in supernatant, mean of the two raw values of the duplicates (PBMC [2]; donor 3): 908 pg/mL

CCCc1nc2c(N)nc3ccccc3c2s1 [3M-002]
IL-12p70 production within PBMC (PBMC [1]): able to induce IL-12p70 production

CCOCc1nc2c(N)nc3ccccc3c2n1CC(C)(C)O [R848]
IL-12p70 production within PBMC (PBMC [1]): able to induce IL-12p70 production

AAAAAAAUCAUAAAAAAAA (RNA, backbone not given here) [ANP-Oligo 160]
Adjusted IL-12 index Mean (PBMC [2]): 0.1

AAAAAAAUCCCAAAAAAAA (RNA, backbone not given here) [ANP-Oligo 161]
Adjusted IL-12 index Mean (PBMC [2]): −0.42

AAAAAAAUCCGAAAAAAAA (RNA, backbone not given here) [ANP-Oligo 162]
Adjusted IL-12 index Mean (PBMC [2]): −0.5

AAAAAAAUCCUAAAAAAAA (RNA, backbone not given here) [ANP-Oligo 163]
Adjusted IL-12 index Mean (PBMC [2]): −0.15

AAAAAAAUCGCAAAAAAAA (RNA, backbone not given here) [ANP-Oligo 164]
Adjusted IL-12 index Mean (PBMC [2]): −0.1

AAAAAAAUCGGAAAAAAAA (RNA, backbone not given here) [ANP-Oligo 165]
Adjusted IL-12 index Mean (PBMC [2]): −0.26

AAAAAAAUCGUAAAAAAAA (RNA, backbone not given here) [ANP-Oligo 166]
Adjusted IL-12 index Mean (PBMC [2]): 4.42 | adjusted IL-12 index (PBMC [2]; summarized from all six donors): 4.42

AAAAAAAUCUCAAAAAAAA (RNA, backbone not given here) [ANP-Oligo 167]
Adjusted IL-12 index Mean (PBMC [2]): 0.37

AAAAAAAUCUGAAAAAAAA (RNA, backbone not given here) [ANP-Oligo 168]
Adjusted IL-12 index Mean (PBMC [2]): 0.45

AAAAAAAUCUUAAAAAAAA (RNA, backbone not given here) [ANP-Oligo 169]
Adjusted IL-12 index Mean (PBMC [2]): 0.67

AAAAAAAUGACAAAAAAAA (RNA, backbone not given here) [ANP-Oligo 170]
Adjusted IL-12 index Mean (PBMC [2]): 0.86

AAAAAAAUGAGAAAAAAAA (RNA, backbone not given here) [ANP-Oligo 171]
Adjusted IL-12 index Mean (PBMC [2]): 0.22

AAAAAAAUGAUAAAAAAAA (RNA, backbone not given here) [ANP-Oligo 172]
Adjusted IL-12 index Mean (PBMC [2]): 1.92

AAAAAAAUGCCAAAAAAAA (RNA, backbone not given here) [ANP-Oligo 173]
Adjusted IL-12 index Mean (PBMC [2]): 1.22

AAAAAAAUGCGAAAAAAAA (RNA, backbone not given here) [ANP-Oligo 174]
Adjusted IL-12 index Mean (PBMC [2]): 0.28

AAAAAAAUGCUAAAAAAAA (chemistry not given here) [ANP-Oligo 175]
Adjusted IL-12 index Mean (PBMC [2]): 1.85 | adjusted IL-12 index (PBMC [2]; donor 3, IL-12 index minus mean of all IL-12 indices of the donor): 1.46 | IL-12 in supernatant, mean of the two raw values of the duplicates (PBMC [2]; donor 3): 1725 pg/mL | IL-12 index (PBMC [2]; donor 3, ratio to RNA9.2sense): 1.90

AAAAAAAUGGCAAAAAAAA (RNA, backbone not given here) [ANP-Oligo 176]
Adjusted IL-12 index Mean (PBMC [2]): 2.41

AAAAAAAUGGGAAAAAAAA (RNA, backbone not given here) [ANP-Oligo 177]
Adjusted IL-12 index Mean (PBMC [2]): −0.35

AAAAAAAUGGUAAAAAAAA (RNA, backbone not given here) [ANP-Oligo 178]
Adjusted IL-12 index Mean (PBMC [2]): 3.26 | adjusted IL-12 index (PBMC [2]; summarized from all six donors): 3.26

AAAAAAAUGUCAAAAAAAA (RNA, backbone not given here) [ANP-Oligo 179]
Adjusted IL-12 index Mean (PBMC [2]): 0.9

AAAAAAAUGUGAAAAAAAA (RNA, backbone not given here) [ANP-Oligo 180]
Adjusted IL-12 index Mean (PBMC [2]): 1.31

AAAAAAAUGUUAAAAAAAA (RNA, backbone not given here) [ANP-Oligo 181]
Adjusted IL-12 index Mean (PBMC [2]): 0.79

AAAAAAAUUACAAAAAAAA (RNA, backbone not given here) [ANP-Oligo 182]
Adjusted IL-12 index Mean (PBMC [2]): 0.11

AAAAAAAUUAGAAAAAAAA (RNA, backbone not given here) [ANP-Oligo 183]
Adjusted IL-12 index Mean (PBMC [2]): 0.27

AAAAAAAUUAUAAAAAAAA (RNA, backbone not given here) [ANP-Oligo 184]
Adjusted IL-12 index Mean (PBMC [2]): 0.56

AAAAAAAUUCCAAAAAAAA (RNA, backbone not given here) [ANP-Oligo 185]
Adjusted IL-12 index Mean (PBMC [2]): −0.08

AAAAAAAUUCGAAAAAAAA (RNA, backbone not given here) [ANP-Oligo 186]
Adjusted IL-12 index Mean (PBMC [2]): −0.08

AAAAAAAUUCUAAAAAAAA (RNA, backbone not given here) [ANP-Oligo 187]
Adjusted IL-12 index Mean (PBMC [2]): 0.18

AAAAAAAUUGCAAAAAAAA (RNA, backbone not given here) [ANP-Oligo 188]
Adjusted IL-12 index Mean (PBMC [2]): 1.62

AAAAAAAUUGGAAAAAAAA (RNA, backbone not given here) [ANP-Oligo 189]
Adjusted IL-12 index Mean (PBMC [2]): 0.66

AAAAAAAUUGUAAAAAAAA (RNA, backbone not given here) [ANP-Oligo 190]
Adjusted IL-12 index Mean (PBMC [2]): 1.6 | adjusted IL-12 index (PBMC [2]; summarized from all six donors): 1.6

AAAAAAAUUUCAAAAAAAA (RNA, backbone not given here) [ANP-Oligo 191]
Adjusted IL-12 index Mean (PBMC [2]): 0.27

AAAAAAAUUUGAAAAAAAA (RNA, backbone not given here) [ANP-Oligo 192]
Adjusted IL-12 index Mean (PBMC [2]): 0.65

AAAAAAAUUUUAAAAAAAA (RNA, backbone not given here) [ANP-Oligo 193]
Adjusted IL-12 index Mean (PBMC [2]): 0.62

polyA
IL-12p70 production within PBMC (PBMC [1]): no activity | IL-12p70 production within PBMC (PBMC [1]; listed as poly adenosine RNA oligonucleotides): completely inactive | IL-12p70 production within PBMC (PBMC [1]; listed as poly adenosine oligonucleotides): inactive

polyC
IL-12p70 production within PBMC (PBMC [1]): no activity

polyU
IL-12p70 production within PBMC (PBMC [1]): slight yet consistent IL-12 response
